Measured values: patent US4579867A, “Stable pharmaceutical compositions of short-acting β-adrenergic receptor blocking agents” (American Hospital Supply Corporation, priority 1984, dated 1986)
Converted amounts (≈) assume the structure as drawn. “And” between values parts separate entries of the source, which are not always exact repeats. Equal entries are not always repeated. Where two headings read alike, the source gives them in different places.

Key:
β-adrenergic receptor = assay: β-blocking activity and recovery from β-blockade in anesthetized dogs (isoproterenol heart rate response, 3-hour infusion); type: in vivo; conditions: for Potency: 3-hour infusion, rate adjusted to about 50% isoproterenol inhibition, pentobarbital-anesthetized dogs; for % I (percent inhibition of heart rate response to isoproterenol): end of 3-hour infusion, isoproterenol 0.5 μg/kg; for Recovery Time 50%: 50% recovery from β-blockade after termination of infusion
Method: The duration of β-blockade was determined in vivo using pentobarbital-anesthetized dogs instrumented for measurement of heart rate using a Beckman cardiotachometer triggered electronically by a phasic aortic blood pressure signal. Both vagus nerves were severed in the cervical region and the animals were mechanically ventilated. The experimental design used employed a 3-hour infusion of test compound. Bolus doses of isoproterenol (0.5 μg/kg) were used to assess the degree of β-blockade and recovery from β-blockade after […] of the infusion. The doses were spaced at 10-minute intervals and were given before, during and following the infusion of test compounds. The infusion rate was adjusted so that at the end of the 3-hour infusion period the degree of isoproterenol inhibition averaged about 50% of control.

pKa = type: physicochemical
[1] = Kinetic degradation study in solution at 75° C.; type: physicochemical
Method: In order to determine the pH at which the formulation would show maximum stability, a kinetic degradation study was employed. pH of solutions ranging from 2-4, containing 0.1M each of the compound of formula II and tartrate buffer were stored at 75° C. At various time intervals, samples were taken and assayed for the compound.
The kinetic data obtained was plotted as a log of drug concentration versus time. The apparent first-order rate constants were calculated from the slopes of the linear regression lines fitted to log (C)=log (Co)[…] where C is drug concentration at time t, Co is the initial drug concentration and k is the apparent first-order rate constant.
The logarithm of the potency versus time in all cases produced linear plots. The apparent first-order rate constants were calculated from the slopes of the linear regression lines (not shown) and are presented in FIG. 1.
The ratio of the two organic vehicles, namely propylene glycol and alcohol were determined by making solutions of the compound of formula II in the vehicle and testing the stability at 75° C. Samples were removed after specified times and measured for potency.
FIG. 3 illustrates the stability of the compound of formula II in hydroalcoholic solution buffered at pH 3 by sodium tartrate. An identical stability study was conducted with a solution without buffering agent (FIG. 4).

[2] = Shelf life / storage stability of solutions; type: physicochemical; conditions: within a week; room temperature; without stabilization; read-out: potency loss
[3] = Solubility in various vehicles (HPLC); type: physicochemical
Method: Initially, the solubility of the compound was determined in various vehicles. The amount dissolved was measured by HPLC (Table 2). […] Based on this acidic nature, a tartrate buffer was selected. It was foun that the molar ratio of active β-blocking agent to buffer was critical, 1:1 to 3:1 to stabilized product.
Samples were dissolved or diluted with the mobile phase, methanol--pH 3.4 phosphate buffer solution. The resulting solutions were diluted with benzoic acid internal standard solution and chromatographed on a octadecyl silane column with detection at 229 nm. […] The method is linear, quantitative, rugged and reproducible with a sensitivity of 2 ug/ml. Either peak height or peak area ratios can be used for quantitation.

[4] = Comparison of degradation in aqueous solution and in the formulation (forced degradation, HPLC); type: physicochemical; conditions: 75° C.; for degraded at 168 h: one week
Method: The sulfate salt of the compound of Formula II in aqueous solution when stored at 75° C. degraded about 70% in one week. In contrast, when formulated in the pharmaceutical composition as noted and placed under the same storage conditions, it degraded only about 25%.
The results of this comparison are represented in FIG. 5. Samples for the study were prepared and tested as follows:
b. Aqueous at 75° C.--10 mg of sulfate salt of Formula II were dissolved in 100 mL of deionized water. A 2 mL portion of this solution was transferred to a vial and placed in a 75° C. oven. A series of vials were prepared and evaluated at various intervals. Each time 2 mL of mobile phase was added to the vial (final conc. 50 μg/mL) for subsequent HPLC evaluation. The results are plotted as curve B in FIG. 5.
c. Forced Degradation of the Formulation was carried out using a solution containing the sulfate salt of Formula II, 100 mg/mL, in Acetate Buffer (0.35M) containing 20% of Propylene Glycol:Ethanol (50:50) having a pH 3.17. The formulation solution was divided into 2 parts, placed in 55° C. and 75° C. ovens and tested periodically. To evaluate the formulation, the solution was diluted 1 mL to 100 mL of mobile phase, then 5 mL to 100 mL in mobile phase (final conc.--50 μg/mL) for subsequent HPLC evaluation.
The rates of decomposition were monitored by HPLC and compared to the respective initial concentrations at 220 nm. In order to insure that the peak was that of the sulfate salt and not an impurity, excipient or product of decomposition, the peak was scanned using a variable wavelength detector ([…]). Using the Perkin-Elmer LC-75 Detector Stop Flow System described below:
A 70 μL portion of the sulfate salt degraded samples were injected manually into the HPLC L-75 equipped with a variable wavelength detector, programmed to scan wavelengths from 200 to 320 nm. When the sulfate salt reached the detector cell, the flow of mobile phase was stopped and the scan initiated from 200 to 320 nm. In this manner, only the peak corresponding to the sulfate salt was measured.

In the case of `CC(C)NCC(O)COc1cccc2ccccc12` (centres unmarked) [Propranolol, reference compound], the Potency (β-adrenergic receptor) is reported as 0.2 mg/kg/180 min and the “% I (percent inhibition of heart rate response to isoproterenol)” value (β-adrenergic receptor; dogs) is reported as 67 ± 6%.

With `CC(=O)NCC(C)(C)NCC(O)COC(=O)c1ccccc1F` (centres unmarked) [Compound 4] the Potency (β-adrenergic receptor) was 2.7 mg/kg/180 min.

With `CC(C)(CNC(N)=O)NCC(O)COC(=O)c1ccccc1F` (centres unmarked) [Compound 17] the Potency (β-adrenergic receptor) was 0.7 mg/kg/180 min.

Molecule `CC(C)(CNC(=O)C1CCCCC1)NCC(O)COC(=O)c1ccccc1F` (centres unmarked) [Compound 6] has a Potency (β-adrenergic receptor) of 1.4 mg/kg/180 min.

Molecule `CC(C)(CNC(=O)N1CCOCC1)NCC(O)COC(=O)c1ccc(O)c(O)c1` (centres unmarked) [Compound 12] has a Potency (β-adrenergic receptor) of 0.08 mg/kg/180 min.

In the case of `O=C(CC1CCCCC1)NCCNCC(O)COC(=O)c1ccccc1F` (centres unmarked) [Compound 8], the “Recovery Time 50%” value (β-adrenergic receptor; dogs) is reported as 3,4 min and the “% I (percent inhibition of heart rate response to isoproterenol)” value (β-adrenergic receptor; dogs) is reported as 43% and 55%.

In the case of `CC(C)(CNC(N)=O)NCC(O)COC(=O)c1ccccc1F` (centres unmarked) [compound of formula II, N-(1,1-Dimethyl-2-ureidoethyl)-2-hydroxy-3-(O-fluorobenzoyloxy) propylamine], the pKa (pKa) is reported as 8.17, the “propylene glycol to alcohol ratio and degradation” value ([1]; FIG. 2) is reported as 1:1 ratio of the two substances minimizes degradation and the “rate of degradation (slope)” value ([1]; hydroalcoholic solution (15% propylene glycol, 15% alcohol) buffered at pH 3 by sodium tartrate) is reported as 0.0387 day⁻¹. The “rate of degradation (slope)” value ([1]; hydroalcoholic solution (15% propylene glycol, 15% alcohol), unbuffered) was 0.0709 day⁻¹, the “stability of buffered relative to unbuffered preparation” value ([1]; pH 3 sodium tartrate vs no buffer) was “approximately twice as stable” and the degraded at 168 h [2] was 10%.

In the case of `CC(C)(CNC(N)=O)NCC(O)COC(=O)c1ccccc1F` (centres unmarked), the Solubility ([3]; Alcohol USP (EtOH)) is reported as 2.24 % w/w, the Solubility ([3]; Polyethylene Glycol 200 USP (PEG)) is reported as 2.64 % w/w and the Solubility ([3]; Propylene Glycol USP (PG)) is reported as 3.47 % w/w. It also gave a Solubility ([3]; WFI (5%), EtOH (45%), PEG (50%)) of 5.21 % w/w, a Solubility ([3]; WFI (5%), EtOH (45%), PG (50%)) of 7.20 % w/w and a Solubility ([3]; WFI (5%), EtOH (95%)) of 7.50 % w/w. For the same molecule, the Solubility ([3]; WFI (5%), PEG (95%)) was 3.83 % w/w, the Solubility ([3]; WFI (5%), PG (95%), read-out: Solubility) was 56 mg/mL (≈ 171 mM) and the Solubility ([3]; Water for Injection USP (WFI), read-out: Solubility) was 507 mg/mL (≈ 1550 mM). The degraded at 168 h ([4]; formulated in the pharmaceutical composition) was about 25%, the increase in stability ([4]; formulated vs aqueous solution) was “three fold increase in stability” and the degraded at 168 h ([4]; aqueous solution (deionized water), aqueous solution) was about 70%.

For `CCOC(=O)NCC(C)(C)NCC(O)COC(=O)c1ccccc1F` (centres unmarked) [Compound 21], the Potency (β-adrenergic receptor) was 6.5 ± 1.8 mg/kg/180 min.

For `CC(C)(CNC(=O)C1CCCCC1)NCC(O)COC(=O)c1ccccc1F` (centres unmarked) [Compound 7], the Potency (β-adrenergic receptor) was 1.8 mg/kg/180 min, the “Recovery Time 50%” value (β-adrenergic receptor; dogs) was 8 min and the “Recovery Time 80%” value (β-adrenergic receptor; 80% recovery from β-blockade after termination of infusion, dogs) was 19 min. For the same molecule, the “% I (percent inhibition of heart rate response to isoproterenol)” value (β-adrenergic receptor; dogs) was 68%.

Molecule `CC(C)C(=O)NCC(C)(C)NCC(O)COC(=O)c1ccccc1F` (centres unmarked) [Compound 5] has a Potency (β-adrenergic receptor) of 0.6 mg/kg/180 min.
